In patent US8231693B2, “5-substituted 2-(alkoxymethyl)furans” (Furanix Technologies B.V., priority 2007, dated 2012):

Test: Fuel solubility: miscibility in blends with commercial diesel
Assay type: physicochemical
Excerpt: Fuel solubility is a primary concern for diesel fuel applications. Not all highly polar oxygenates have good solubility in the current commercial diesel fuels.

[1] = all blend ratios with commercial diesel

| Compound | miscibility with commercial diesel [1] | miscibility with commercial diesel (5 vol % blend with commercial diesel) | miscibility with commercial diesel (25 vol % blend with diesel) | miscibility with commercial diesel (40 vol % blend with diesel) |
| --- | --- | --- | --- | --- |
| CCOCc1ccc(COCC)o1 [2,5-di(ethoxymethyl)furan] | miscible in all blend ratio's | – | – | – |
| CCOCc1ccc(COC(C)(C)C)o1 [5-(tertbutoxymethyl)-2-(ethoxymethyl)furan] | miscible in all blend ratio's | – | – | – |
| CCOCc1ccc(C=O)o1 [EMF, 5-(ethoxymethyl)furfural] | – | completely miscible | phase separation occurs | phase separation occurs |
